US20210379012A1, “ANTIANGIOGENIC CHROMANE DERIVATIVE AND USES THEREOF” (Indiana University Research and Technology Corporation, priority 2018, published 2021)

Assays:
Format in all cases: cell-based
[1] = test system: 92-1 uveal melanoma cells; experiment: alamarBlue proliferation assay, 92-1; details: 48 hours' incubation
Protocol: (§1) EBM-2 and IMDM growth media were purchased from Lonza (Walkersville, Md., USA). RPMI and DMEM media were purchased from Thermo Scientific (Waltham, Mass., USA). ARPE19 cells were obtained from ATCC (Manassas, Va., USA). HRECs and Attachment Factor were purchased from Cell Systems (Kirkland, Wash., USA) and were used between passages 5 and 8. Endothelial Growth Medium (EGM-2) was prepared by mixing the contents of an EGM-2 “Bullet Kit” (Cat. no. CC-4176) with Endothelial Basal Medium (EBM) (Lonza). The EGM-2 “Bullet Kit” contains hydrocortisone, human fibroblast growth factor (hFGF), VEGF, R3-insulin like growth factor (R3-IGF-1), ascorbic acid, human epidermal growth factor (hEGF), gentamycin and heparin along with 2% fetal bovine serum (FBS). ARPE19 cells were grown in DEM medium containing 10% FBS and 1% penicillin-streptomycin (pen-strep). 92-1 cells were grown in RPMI medium containing 10% FBS and 1% pen-strep. Y79 cells were grown in RB medium (IMDM+10% FBS+55 μM β-mercaptoethanol+10 μg/mL Insulin+1% pen-strep). […]
(§2) The proliferation of cells was monitored by an alamarBlue based fluorescence assay. […] At the end of the incubation, 11.1 μL of alamarBlue reagent was added and 4 hours after, fluorescence readings were taken with excitation and emission wavelengths of 560 nm and 590 nm respectively. Data were analyzed and dose response curves generated using GraphPad Prism software (v. 6.0).

Y79 retinoblastoma cells = experiment: alamarBlue proliferation assay, Y79; details: 48 hours' incubation
Protocol: as §1, §2

[2] = test system: ARPE19 retinal pigment epithelial cells; experiment: alamarBlue proliferation assay, ARPE19; details: Homo sapiens, ARPE-19, 48 hours' incubation
Protocol: as §1, §2

[3] = test system: human retinal endothelial cells (HRECs); experiment: alamarBlue proliferation assay, HRECs; details: HREC, 48 hours' incubation
Protocol: as §1, §2

## COc1ccc(CC2COc3cc(OC)c(OC)c(OC)c3C2)cc1O (stereo not shown) [compound (1)]
[1]
  GI50: 28 µM
Y79 retinoblastoma cells
  GI50: 17 µM
[2]
  GI50: > 100 µM
[3]
  GI50: 0.00152 µM
